How the values were obtained:
Plasmodium falciparum [1] = experiment: ST_JUDE: Plasmodium falciparum 3D7 EC50 (uM) as measured by SYBR green dye; type: functional, organism-based
Plasmodium falciparum [2] = experiment: ST_JUDE: Plasmodium falciparum K1 EC50 (uM) as measured by SYBR green dye; type: functional, organism-based

Compound	EC50 (Plasmodium falciparum [1]) [µM]	EC50 (Plasmodium falciparum [2]) [µM]
Cc1cccc(-n2ccnc2SCC(=O)Nc2cc(C(F)(F)F)ccc2Cl)c1	> 15	> 15
CCOc1ccc(NC(=O)c2sc3nc4n(c(=O)c3c2C)CCC4)cc1	> 15	> 15
COc1ccc(S(=O)(=O)NC2=C/C(=N\c3ccc(NC(C)=O)cc3)C(=O)c3ccccc32)cc1	5.75	2.87
CCCCc1ccc(OCC(=O)N/N=C/c2cccc(OC)c2)cc1	> 15	> 15
COc1ccc(C(=O)C2CCCN(Cc3ccc(OCCO)cc3)C2)cc1OC (stereo not given)	> 15	> 15
CCCNC(=O)C1CN1Cc1ccc(OC)cc1 (stereo not given)	6.81	6.92
Cc1ccc(OCCCOc2cccc3ccc(C)nc23)c([N+](=O)[O-])c1	> 15	> 15
CCC(=O)Oc1cccc2ccc(/C=C/c3cc4c(cc3Cl)OCO4)nc12	> 15	> 15
COC(=O)c1ccccc1NC(=O)c1ccc(Cn2cc(Cl)cn2)cc1	> 15	> 15
COc1ccc(C2N(C)c3ccccc3N2C)cc1	> 15	> 15
Cc1ccc(Nc2nc(N)c3ccccc3n2)cc1Cl	> 15	> 15
CCOC(=O)c1ccc(NC(=O)CSc2nn3c(=O)c(C)nnc3s2)cc1	> 15	> 15
Cc1sc(NC(=O)c2cc(-c3ccccn3)nc3ccc(Cl)cc23)c(C(N)=O)c1C	> 15	> 15
CC(C)N1CCN(Cc2ccc(C#CC(C)(C)O)cc2)CC1CCO (stereo not given)	> 15	> 15
COC(=O)c1c(S(=O)(=O)N2CCCC2)sc2c1CCN(Cc1c[nH]nc1-c1ccccc1)C2	> 15	> 15
Oc1c(C(Nc2ccccn2)c2cccc(Cl)c2)cc(Cl)c2cccnc12 (stereo not given)	7.66	4.69
O=C(Cc1ccc(Cl)cc1)Nc1cc(C(F)(F)F)cc(C(F)(F)F)c1	> 15	5.13
COc1ccc(N2CCN(C3CCCN(Cc4cccc(SC)c4)C3)CC2)cc1 (stereo not given)	> 15	> 15
COc1cc(Cl)c(NC(=O)c2cc3ccccc3cc2O)c(OC)c1	> 15	> 15
CCO/C(O)=C1\C(C)=NC2=C(C(=O)CC(c3ccc(OC)c(OC)c3)C2)C1c1cccc([N+](=O)[O-])c1 (stereo not given)	> 15	> 15

Compound	EC50 (Plasmodium falciparum [1]) [µM]	EC50 (Plasmodium falciparum [2]) [µM]
CCOC(=O)C(C)Oc1cccc2c(=O)n(CC(=O)Nc3ccccc3C(F)(F)F)ccc12 (stereo not given)	> 15	> 15
O=[N+]([O-])c1ccc(O)c(/N=C/C=C(\O)c2ccc(Cl)c(Cl)c2)c1	> 15	1.65
COc1ccc(-c2nn(C)c3sc(C(=O)Nc4cccc(SC)c4)cc23)cc1OC	> 15	5.24
COc1ccc(CCNC(=S)Nc2cccc(Cl)c2)cc1OC	5.39	3.98
COc1ccc2sc(N(Cc3cccnc3)C(=O)c3ccc(Cl)cc3)nc2c1	> 15	> 15
Cc1nc2ccc(/N=C/c3ccc(N(C)C)cc3)cc2s1	> 15	> 15
CCCN(CCC)C(=O)c1ccc2c(Cl)c3c(nc2c1)CCCC3	> 15	> 15
CCOC(=O)C1=C(C)N=c2s/c(=C\c3ccc(O)c(OC)c3)c(=O)n2C1c1ccc(F)cc1 (stereo not given)	> 15	2.26
COc1ccccc1N1CCN(C(CNS(=O)(=O)c2ccc(Cl)cc2)c2cccnc2)CC1 (stereo not given)	> 15	4.64
C[n+]1ccn2c3c(c4cc(C5CCCCC5)ccc42)CCCc31	> 15	2.34
CCOc1ccc(Nc2c3ccccc3nc3ccccc23)cc1	5.72	1.91
CC(=O)N1CCc2c(sc(NC(=O)c3ccc(C)c(C)c3)c2C(N)=O)C1	> 15	> 15
CCc1ccc2nc(N(Cc3cccnc3)C(C)=O)sc2c1	> 15	> 15
O=[N+]([O-])c1cccc(NC(=S)Nc2ccc(OC(F)F)c(Cl)c2)c1	6.66	4.46
COc1ccc(NC(=O)c2sc3ccccc3c2Cl)c(OC)c1	> 15	> 15
Cc1cccc(C2CC(=O)NC3=C2C(=O)CC(c2ccccc2Cl)C3)c1 (stereo not given)	> 15	4.42
COC(=O)Oc1ccc2c(=O)c(Oc3ccc4ccccc4c3)c(C(F)(F)F)oc2c1	> 15	> 15
CCC(=O)N1c2ccc(S(=O)(=O)CCC(=O)Nc3ccc(Br)c(C)c3)cc2CC1C (stereo not given)	> 15	> 15
Cc1cccc2sc(N(Cc3cccnc3)C(=O)c3ccco3)nc12	6.82	5.31
Cn1c(-c2ccccc2[N+](=O)[O-])[n+](C)c2ccccc21	7.38	> 15

Compounds with a lower EC50 (Plasmodium falciparum [1]), results first:

EC50 (Plasmodium falciparum [1]) [µM]	EC50 (Plasmodium falciparum [2]) [µM]	Compound
1.47	1.59	COc1ccccc1Cn1ccnc1SCC(=O)Nc1cccc(C(F)(F)F)c1
2.32	0.655	CCOc1cc(C2CC(=O)NC3=C2C(=O)CC(c2ccc(OC)c(OC)c2)C3)ccc1O (stereo not given)
0.503	0.612	COc1ccc(OC)c(NC(=O)C2c3ccccc3C(=O)N(CC(C)C)C2c2cccs2)c1 (stereo not given)
4.71	0.73	O=C1CC(c2ccc(F)cc2F)C2=C(CC(c3ccc(F)cc3)CC2=O)N1 (stereo not given)
0.973	1.2	O=C(Nc1cccc(C(F)(F)F)c1)c1cc(Cl)ccc1O
0.0315	0.0458	CC(=O)N(C1=C(N(C)C)C(=O)c2ccccc2C1=O)c1ccc(I)cc1
3.14	2.16	CCOC(=O)c1oc2c(c1C)-c1nn(Cc3ccc(C)cc3)cc1CC2
3.83	> 15	CO/C(O)=C1\C(C)=NC2=C(C(=O)CC(c3ccccc3OC)C2)C1c1ccc([N+](=O)[O-])cc1 (stereo not given)
3.52	2.83	C=CCN1C(=O)c2[nH]nc(-c3c(C)cc(C)cc3O)c2C1c1cccc(OCC)c1 (stereo not given)
3.98	> 15	CCOc1ccc(C2c3cccn3CCN2C(=O)NCc2ccccc2)cc1 (stereo not given)
0.0191	0.0247	O=C1C(NC2CCCCC2)=C(N2CCCCC2)C(=O)c2ccccc21
1.49	4.27	CN1CCN(c2nc(Nc3ccc(F)cc3)c3cnn(-c4ccccc4)c3n2)CC1
1.97	0.725	CCCCCCn1c(=N)n(CC(O)COc2cccc(C)c2)c2ccccc21 (stereo not given)
1.33	> 15	CC/C(=C\c1sc2ccc(OC)cc2[n+]1CC)SC
2.84	1.22	CCn1c2ccccc2c2cc(CN3CCN(Cc4cc(OC)ccc4O)CC3)ccc21
0.941	0.808	CC(C)OCc1cc(CN2CCN(c3cccc(Cl)c3)CC2)c(O)c2ncccc12
1.55	> 15	COc1ccc(Nc2cc(C)nc(Nc3ccc(NS(=O)(=O)c4ccc(F)cc4)cc3)n2)cc1
0.852	1.49	O=C1C(Nc2cccc(C(F)(F)F)c2)=C(N2CCCCC2)C(=O)c2ccccc21
0.578	0.949	CSc1cccc(NC(=O)C2c3ccccc3C(=O)N(C3CCCC3)C2c2cccs2)c1 (stereo not given)
3.81	4.14	CCc1cccc(NC(=O)C2c3ccccc3C(=O)N(CCOC)C2c2cccs2)c1 (stereo not given)
2.29	> 15	CCN(CC)c1ccc(/C=C/C(=O)NCCN2CCC(N(C)C3CCCCC3C)CC2)cc1 (stereo not given)
0.13	0.2	CSc1cccc(NC(=O)C2c3ccccc3C(=O)N(CC(C)C)C2c2cccs2)c1 (stereo not given)
2.29	> 15	CCN(CC)c1cc(C)c2cc(NC(=O)c3ccc(OC)c(OC)c3)ccc2n1

EC50 (Plasmodium falciparum [1]) [µM]	EC50 (Plasmodium falciparum [2]) [µM]	Compound
2.13	> 15	Oc1c(C(Nc2ccccn2)c2ccccc2Br)cc(Cl)c2cccnc12 (stereo not given)
4.14	> 15	COCC(C)Oc1cccc(CN(Cc2ccncc2)C(=O)/C=C/c2cccc(F)c2)c1 (stereo not given)
3.76	5.59	Oc1cccnc1NC(c1ccc(Cl)cc1)c1ccc2cccnc2c1O (stereo not given)
1.62	2.07	CC1Cc2nc(SCC(=O)Nc3cccc(F)c3)n(C)c(=O)c2S1 (stereo not given)
4.69	> 15	COc1ccc2nc(C)cc(Nc3ccc(N4CCOCC4)cc3)c2c1
3.76	3.44	Oc1c(CN2CCN(c3ccccc3F)CC2)cc(Br)c2cccnc12
3.91	1.72	CO/C(O)=C1\C(C)=NC2=C(C(=O)CC(c3ccccc3OC)C2)C1c1cccs1 (stereo not given)
1.18	> 15	Cc1ccc(S(=O)(=O)Oc2ccc(/C=N/N=C(N)N)cc2)cc1
0.921	1.22	Fc1ccc(-c2nc3ncccn3c2Nc2cccc(C(F)(F)F)c2)cc1
0.985	0.965	Cc1cccc(/C=C2/Sc3ccc(C(=O)NCCN4CCN(c5cc(Cl)ccc5C)CC4)cc3N(C)C2=O)c1
0.456	1.15	O=C1C(Nc2cccc(Br)c2)=C(N2CCCCC2)C(=O)c2ccccc21
3.15	1.62	CC1=C(C)CC2C(=O)C3=C(C(=O)C2C1)C1c2ccccc2C3c2ccccc21 (stereo not given)
3.48	2.26	Cc1ccc(Oc2nc(-c3ccncc3)nc3ccccc23)cc1
0.982	6.36	CCOc1ccc2nc(C)cc(Nc3ccc(N4CCOCC4)cc3)c2c1
3.44	2.42	Cc1cccc2sc(N(Cc3cccnc3)C(=O)C3CCCCC3)nc12
1.6	1.79	Cc1cc(C)cc(Nc2nc(NCC3CCCO3)c3ccccc3n2)c1 (stereo not given)
0.634	1.59	CC1CCCCN1CCCNC(=O)c1ccc2c(c1)sc1nc(-c3ccc(F)cc3)cn12 (stereo not given)
0.765	0.5	O=C(Nc1ccc(Cl)cc1C(O)c1ccccc1)c1cnn2c1NC(c1ccccc1)CC2C(F)(F)F (stereo not given)
0.722	4.01	C=CCn1c(SCC(=O)Nc2ccccc2OC)nc2sc(C)cc2c1=O
1.41	> 15	CCCCOc1ccc(S(=O)(=O)Nc2ccc(Nc3nc(C)cc(N4CCCC4)n3)cc2)cc1
1.3	1.9	CC(=O)N(C1=C(N(C)C)C(=O)c2ccccc2C1=O)c1ccc(C(=O)O)cc1
0.0145	0.0135	CCCCOc1ccc(NC2=C(N3CCCCC3)C(=O)c3ccccc3C2=O)cc1

From ChEMBL document CHEMBL1154198, “Chemical genetics of Plasmodium falciparum” (Nature, 2010)
